The values below come from the supplement of paper PMC10307832.

What all share (test): relative viability (nuclei count vs DMSO), 5 days (fraction); higher = more cells survive
Compound in test [1]: Cc1ccc2nc(NCCN)c3ncc(C)n3c2c1 + CC(C)C[C@H](NC(=O)[C@H](Cc1ccccc1)NC(=O)c1cnccn1)B(O)O [Bortezomib] (partner 0.002 µM)
A digest of the protocol: (§1)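 Relative viability equals treated-well nuclei counts divided by vehicle-well nuclei counts. Counts came from 4× images of lung cancer cell lines grown in 1536-well plates for 5 days after pin-tool dosing on the day after seeding. Dosing used one drug alone or a fixed anchor-drug dose plus five library-drug doses (not always all listed) in √10 steps, and values are medians of duplicate plates.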

Compound in test [2]: O=C(/C=C/c1ccccc1)NC(NC(=S)Nc1cccc2cccnc12)C(Cl)(Cl)Cl [Salubrinal] + N=C(N)NC(=N)NCCc1ccccc1 [Phenformin] (partner 250 µM)
The essentials: as §1

Compound in test [3]: Cc1ccc2nc(NCCN)c3ncc(C)n3c2c1 + CC1(C)CCC(c2ccc(Cl)cc2)=C(CN2CCN(c3ccc(C(=O)NS(=O)(=O)c4ccc(N[C@H](CCN5CCOCC5)CSc5ccccc5)c(S(=O)(=O)C(F)(F)F)c4)cc3)CC2)C1 [Navitoclax] (partner 0.5 µM)
A digest of the protocol:
as §1

Compound in test [4]: Cc1ccc2nc(NCCN)c3ncc(C)n3c2c1 + Nc1nc2[nH]cc(CCc3ccc(C(=O)N[C@@H](CCC(=O)O)C(=O)O)cc3)c2c(=O)[nH]1 [Pemetrexed] (partner 0.2 µM)
A digest of the protocol:
as §1

As for NCI-H3122, the relative viability in test [1] (first compound 0.04 µM) stood at 0.957; in test [1] (first compound 0.1265 µM), 1.03; in test [1] (first compound 0.4 µM) it was 1.05; in test [1] (first compound 1.265 µM) it was 0.985; in test [1] (first compound 4 µM), 1.1; in test [2] (first compound 0.08 µM) it was 0.42. For the same cell line, the relative viability in test [2] (first compound 0.253 µM) came to 0.371; in test [2] (first compound 0.8 µM) it was 0.412; in test [2] (first compound 2.53 µM), 0.367; in test [2] (first compound 8 µM), 0.356; in test [3] (first compound 0.04 µM), 1.03; in test [3] (first compound 0.1265 µM), 1.03. For the same cell line, the relative viability in test [3] (first compound 0.4 µM) turned out to be 1.06; in test [3] (first compound 1.265 µM) it was 1; in test [3] (first compound 4 µM), 1.1; in test [4] (first compound 0.04 µM) it was 0.199; in test [4] (first compound 0.1265 µM), 0.192; in test [4] (first compound 0.4 µM), 0.192. The values for the relative viability in test [4] (first compound 1.265 µM) and in test [4] (first compound 4 µM) were 0.218 and 0.2, respectively.
PC-3 [JPC-3]: the relative viability in test [1] (first compound 0.04 µM) was determined as 0.863; in test [1] (first compound 0.1265 µM) it was 0.893; in test [1] (first compound 0.4 µM), 0.723; in test [1] (first compound 1.265 µM), 0.842; in test [1] (first compound 4 µM) it was 0.707; in test [2] (first compound 0.08 µM), 0.471. Also, the relative viability was 0.448 in test [2] (first compound 0.253 µM); 0.529 in test [2] (first compound 0.8 µM); 0.475 in test [2] (first compound 2.53 µM); 0.467 in test [2] (first compound 8 µM); 0.826 in test [3] (first compound 0.04 µM); 0.767 in test [3] (first compound 0.1265 µM). Moreover, the relative viability in test [3] (first compound 0.4 µM) is 0.848; in test [3] (first compound 1.265 µM), 0.786; in test [3] (first compound 4 µM), 0.827; in test [4] (first compound 0.04 µM) it was 1.21; in test [4] (first compound 0.1265 µM) it was 1.03; in test [4] (first compound 0.4 µM), 1.1. Besides, the figures for the relative viability in test [4] (first compound 1.265 µM) and in test [4] (first compound 4 µM) were 0.987 and 1.09, respectively.
For the cell line PC-14, the relative viability in test [1] (first compound 0.04 µM) was found to be 0.957; in test [1] (first compound 0.1265 µM), 0.884; in test [1] (first compound 0.4 µM), 0.761; in test [1] (first compound 1.265 µM) it was 0.904; in test [1] (first compound 4 µM) it was 0.782; in test [2] (first compound 0.08 µM), 0.696. For the same cell line, the relative viability in test [2] (first compound 0.253 µM) amounted to 0.551; in test [2] (first compound 0.8 µM) it was 0.576; in test [2] (first compound 2.53 µM), 0.677; in test [2] (first compound 8 µM) it was 0.687; in test [3] (first compound 0.04 µM) it was 0.985; in test [3] (first compound 0.1265 µM), 1.02. For the same cell line, the relative viability in test [3] (first compound 0.4 µM) was found to be 0.993; in test [3] (first compound 1.265 µM), 0.908; in test [3] (first compound 4 µM), 0.856; in test [4] (first compound 0.04 µM), 0.135; in test [4] (first compound 0.1265 µM), 0.14; in test [4] (first compound 0.4 µM), 0.157. The relative viability in test [4] (first compound 1.265 µM) is 0.15; in test [4] (first compound 4 µM) it was 0.151.
For RERF-LC-KJ, the relative viability in test [1] (first compound 0.04 µM) was found to be 1.19; in test [1] (first compound 0.1265 µM), 0.968; in test [1] (first compound 0.4 µM), 1.11; in test [1] (first compound 1.265 µM), 1.07; in test [1] (first compound 4 µM), 0.983; in test [2] (first compound 0.08 µM) it was 0.442. Moreover, the relative viability in test [2] (first compound 0.253 µM) came out at 0.39; in test [2] (first compound 0.8 µM) it was 0.414; in test [2] (first compound 2.53 µM), 0.408; in test [2] (first compound 8 µM), 0.413; in test [3] (first compound 0.04 µM), 0.881; in test [3] (first compound 0.1265 µM) it was 0.821. In addition, the relative viability turned out to be 1.02 in test [3] (first compound 0.4 µM); 0.65 in test [3] (first compound 1.265 µM); 0.726 in test [3] (first compound 4 µM); 0.489 in test [4] (first compound 0.04 µM); 0.474 in test [4] (first compound 0.1265 µM); 0.435 in test [4] (first compound 0.4 µM). The relative viability was determined as 0.485 in test [4] (first compound 1.265 µM) and 0.518 in test [4] (first compound 4 µM).
With SK-LU-1, the relative viability came out at 1.39 in test [1] (first compound 0.04 µM); 1.28 in test [1] (first compound 0.1265 µM); 0.989 in test [1] (first compound 0.4 µM); 1.29 in test [1] (first compound 1.265 µM); 1.02 in test [1] (first compound 4 µM); 0.647 in test [2] (first compound 0.08 µM). For the same cell line, the relative viability in test [2] (first compound 0.253 µM) was 0.4; in test [2] (first compound 0.8 µM), 0.594; in test [2] (first compound 2.53 µM), 0.555; in test [2] (first compound 8 µM), 0.435; in test [3] (first compound 0.04 µM), 1.02; in test [3] (first compound 0.1265 µM) it was 0.898. Besides, the relative viability was 0.812 in test [3] (first compound 0.4 µM); 0.769 in test [3] (first compound 1.265 µM); 0.778 in test [3] (first compound 4 µM); 0.979 in test [4] (first compound 0.04 µM); 0.903 in test [4] (first compound 0.1265 µM); 0.955 in test [4] (first compound 0.4 µM). The relative viability was 0.984 in test [4] (first compound 1.265 µM) and 0.981 in test [4] (first compound 4 µM).
In the case of SW 1573, the relative viability in test [1] (first compound 0.04 µM) was determined as 0.978; in test [1] (first compound 0.1265 µM), 1.08; in test [1] (first compound 0.4 µM), 0.965; in test [1] (first compound 1.265 µM) it was 1.2; in test [1] (first compound 4 µM) it was 0.55; in test [2] (first compound 0.08 µM), 0.388. Also, the relative viability in test [2] (first compound 0.253 µM) stood at 0.327; in test [2] (first compound 0.8 µM), 0.389; in test [2] (first compound 2.53 µM) it was 0.332; in test [2] (first compound 8 µM), 0.299; in test [3] (first compound 0.04 µM) it was 1.07; in test [3] (first compound 0.1265 µM) it was 0.938. The relative viability came to 1.16 in test [3] (first compound 0.4 µM); 1.1 in test [3] (first compound 1.265 µM); 0.689 in test [3] (first compound 4 µM); 1.01 in test [4] (first compound 0.04 µM); 0.828 in test [4] (first compound 0.1265 µM); 0.912 in test [4] (first compound 0.4 µM). In addition, the relative viability turned out to be 0.992 in test [4] (first compound 1.265 µM) and 0.611 in test [4] (first compound 4 µM).
